Reference: patent US6833380B2, “Compounds that modulate PPAR activity and methods of preparation” (Warner-Lambert Company, LLC, priority 2002, dated 2004)

How the values were obtained:
[1] = target: T1, hPPARβ chimeric receptor (Homo sapiens, UniProt Q03181); assay: Transient transfections assay using the HepG2 hepatoma cell line (Gal4-PPAR chimeric receptor, luciferase reporter), hPPARβ; format: cell-based; details: HepG2 cells transiently transfected, 24 hours incubation, read-out: Hep G2-hβ EC50
T1 construct: "expression plasmids encoding hPPARα, hPPARβ or mPPARγ chimeric receptors"
T1 sequence (Q03181 171-441 limits assumed): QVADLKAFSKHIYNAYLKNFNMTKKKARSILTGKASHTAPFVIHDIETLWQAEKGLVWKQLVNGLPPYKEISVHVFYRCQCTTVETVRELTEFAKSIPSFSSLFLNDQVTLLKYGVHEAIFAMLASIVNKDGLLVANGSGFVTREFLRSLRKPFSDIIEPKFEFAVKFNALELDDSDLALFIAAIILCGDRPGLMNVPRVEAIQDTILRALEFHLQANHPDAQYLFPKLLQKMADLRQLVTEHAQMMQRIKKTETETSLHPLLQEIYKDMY
Method: (§1) 1. Test A. Transient Transfections Assay using the HepG2 Hepatoma Cell Line.
(§2) HepG2 cells were transiently transfected with an expression plasmids encoding hPPARα, hPPARβ or mPPARγ chimeric receptors and a reporter containing the yeast upstream activating sequence (UAS) upstream of the viral E1B promoter controlling a luciferase reporter gene. In addition, the plasmid pRSVβ-gal was used to control for transfection efficiency. HepG2 cells were grown in DMEM supplemented with 10% FBS and […] non-essential amino acid. On the first day, cells were split into 100 mm dishes at 2.5×10^6/dish and incubated overnight at 37° C./5% CO2. On the second day the cells were transiently transfected with plasmid DNA encoding a chimeric receptor, the luciferase reporter gene; and β-gal. For each 100 mm dish, 15 μg of lucifease reporter (PG5E1b) DNA, 15 μg of Gal4-PPAR chimeric receptor DNA, and 1.5 μg of β-gal plasmid DNA were mixed with 1.4 ml of opti-MEM in the tube. 28 μl of LipoFectamine-2000 reagent was added to 1.4 ml of opti-MEM in the tube, and incubate for 5 min at RT. The diluted Lipofectamine-2000 reagent was combined with the DNA mixture, and incubate for 20 min at RT. After fresh medium was added to each 100 mm dish of cells, 2.8 ml of Lipofectamine2000-DNA mixture was added dropwise to the 100 mm dish containing 14 ml of medium, and incubate 37° C. overnight. On day three cells were trypsinized off the 100 mm dishes and re-plated on 96 well plates. Cells were plated at 2.5×10^4 cells per well in 150 μl of media and 50 μl of compound diluted by media was added. The test compound added were in the range from 50 μM to 50 pM. After addition of compounds, the plates were incubated at 37° C. for 24 hours. Subsequently cells were washed with once with 100 μl of PBS, lysed, and processed for measuring luciferase and β-gal activity using Dual-Light luciferase kit from Tropix®, according to the manufacturer's recommendations, on an EG&G Bethold MicroLumat LB96P luminometer. EC50 values were obtained using the GraphPad Prism™ program. […] Accordingly, the compounds of the present invention should find considerable therapeutic applications for hypercholesterolemia and hyperlipidemia.

[2] = target: T2, hPPARα chimeric receptor (Homo sapiens, UniProt Q07869); assay: Transient transfections assay using the HepG2 hepatoma cell line (Gal4-PPAR chimeric receptor, luciferase reporter), hPPARα; format: cell-based; details: HepG2 cells transiently transfected, 24 hours incubation, read-out: Hep G2-hα EC50
T2 construct: "expression plasmids encoding hPPARα, hPPARβ or mPPARγ chimeric receptors"
T2 sequence (Q07869 200-468 limits assumed): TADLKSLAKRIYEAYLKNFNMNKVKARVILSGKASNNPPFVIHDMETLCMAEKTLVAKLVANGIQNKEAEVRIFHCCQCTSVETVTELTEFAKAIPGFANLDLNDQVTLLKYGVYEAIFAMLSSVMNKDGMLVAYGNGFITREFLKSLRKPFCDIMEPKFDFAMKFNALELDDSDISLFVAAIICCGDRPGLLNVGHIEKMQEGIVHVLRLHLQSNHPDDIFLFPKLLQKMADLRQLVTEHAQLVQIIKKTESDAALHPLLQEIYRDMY
Method: as §1, §2

Row | Structure (SMILES) | EC50 [1] [nM] | melting point [°C] | EC50 [2] [nM]
1 | Cc1nc(-c2ccc(C(F)(F)F)cc2)sc1CSc1ccc(OCC(=O)O)c2c1OCCC2 [Example 1, {8-[4-Methyl-2-(4-trifluoromethyl-phenyl)-thiazol-5-ylmethylsulfanyl]-chroman-5-yloxy}-acetic acid] | 187 | – | –
2 | Cc1nc(-c2ccc(C(F)(F)F)cc2)sc1CSc1ccc(OCC(=O)O)c2c1CCCC2 [Example 2, {4-[4-Methyl-2-(4-trifluoromethyl-phenyl)-thiazol-5-ylmethylsulfanyl]-5,6,7,8-tetrahydro-naphthalen-1-yloxy}-acetic acid] | 52 | 166 to 167 | 2970
3 | Cc1nc(-c2ccc(C(F)(F)F)cc2)sc1CSc1ccc(OCC(=O)O)c2ccccc12 [Example 3, {4-[4-Methyl-2-(4-trifluoromethyl-phenyl)-thiazol-5-ylmethylsulfanyl]-naphthalen-1-yloxy}-acetic acid] | 76 | 181 to 183 | 3580
4 | Cc1cc(SCc2sc(-c3ccc(C(F)(F)F)cc3)nc2C)c2c(c1OCC(=O)O)CCCO2 [Example 4, 2-[6-methyl-8-({4-methyl-2-[4-(trifluoromethyl)phenyl](1,3-thiazol-5-yl)}methylthio)chroman-5-yloxy]acetic acid] | 45 | 203.5 to 205.5 | 1760

Next, values leading:

Row | EC50 [1] [nM] | melting point [°C] | EC50 [2] [nM] | Structure (SMILES)
5 | 0.8 | 157 to 158 | 52 | Cc1cc(SCc2sc(-c3ccc(C(F)(F)F)cc3)nc2C)c2c(c1OCC(=O)O)CCO2 [Example 5, 2-[5-methyl-7-({4-methyl-2-[4-(trifluoromethyl)phenyl](1,3-thiazol-5-yl)}methylthio)-2,3-dihydrobenzo[b]furan-4-yloxy]acetic acid]
6 | 133 | 184 | 191 | Cc1cc(SCc2sc(-c3ccc(C(F)(F)F)cc3)nc2C)c2c(c1OCC(=O)O)CCC2 [Example 6, {5-Methyl-7-[4-methyl-2-(4-trifluoromethyl-phenyl)-thiazol-5-ylmethylsulfanyl]-indan-4-yloxy}-acetic acid]
